Laboratory results published in patent US11214594B2, “Antimicrobial peptide having synergistic antibacterial effect with antibiotics on multidrug resistant bacteria, and use thereof” (priority 2016, dated 2022).
In brackets after ≈: the same amount, converted by molar mass. Like-named read-outs stand apart in the source and are kept apart here. Where a SMILES comes first, the peptide text is derived from it. [ ]: non-standard residue; d: D form.

What was measured:
E. coli [1] = experiment: microbe, parasite or virus in culture; format: cell-based, Escherichia coli; conditions: 16 h
Summary of the method: (§1)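 Each strain is brought to 2×10^6 CFU in nutrient-sufficient Mueller-Hinton medium and dispensed into wells. Peptide solutions, stepwise diluted 2:1 in the same medium, are then added. The minimal concentration preventing growth gives the MIC.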

MDREC 1229 [2] = experiment: microbe, parasite or virus in culture; format: cell-based, Escherichia coli
Summary of the method: as §1

P. aeruginosa = experiment: microbe, parasite or virus in culture; format: cell-based, Pseudomonas aeruginosa
Summary of the method: as §1

A. baumannii [3] = experiment: microbe, parasite or virus in culture; format: cell-based, Acinetobacter baumannii
Summary of the method: as §1

MDRAB 12035 [4] = experiment: microbe, parasite or virus in culture; format: cell-based, Acinetobacter baumannii
Summary of the method: as §1

MDRST 8009 = format: cell-based, Salmonella typhimurium; conditions: agent alone
Summary of the method: as §1

B. subtilis = experiment: microbe, parasite or virus in culture; format: cell-based, Bacillus subtilis
Summary of the method: as §1

S. epidermidis = experiment: microbe, parasite or virus in culture; format: cell-based, Staphylococcus epidermidis
Summary of the method: as §1

S. aureus = experiment: microbe, parasite or virus in culture; format: cell-based, Staphylococcus aureus
Summary of the method: as §1

E. coli [5] = experiment: MIC of antibiotic during combined treatment with antimicrobial peptide; format: cell-based, Escherichia coli; conditions: for Antibiotic MIC, Erythromycin / Antibiotic MIC, Linezolid / Antibiotic MIC, Vancomycin: E. coli
Summary of the method: (§2)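 First, antibiotic solution is diluted with MH medium; next, the dilution is dispensed into wells containing peptide; finally, the orientation is swapped and MIC of each mixture determined.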

A. baumannii [6] = experiment: as above; format: cell-based, Acinetobacter baumannii; conditions: A. baumannii
Summary of the method: as §2

E. coli [7] = format: cell-based, Escherichia coli; conditions: E. coli
Summary of the method: (§3)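 Broth microdilution in MH medium; strains were diluted to 2×10^6 CFU per ml before plating. Peptide was serially diluted stepwise at 2:1 starting from its MIC, and MH-diluted antibiotic was then added to determine MIC. The reversed arrangement was also tested.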

MDREC 1229 [8] = format: cell-based, Escherichia coli
Summary of the method: as §3

A. baumannii [9] = experiment: MIC of antimicrobial peptide during combined treatment with antibiotic; format: cell-based, Acinetobacter baumannii
Summary of the method: as §3

MDRAB 12035 [10] = experiment: as above; format: cell-based, Acinetobacter baumannii
Summary of the method: as §3

[11] = combined with peptide at 1 μg/ml
[12] = combined with peptide at 2 μg/ml
[13] = combined with peptide at 4 μg/ml
[14] = combined with peptide at 6 μg/ml
[15] = combined with peptide at 8 μg/ml
[16] = combined with peptide at 16 μg/ml
[17] = combined with peptide at 32 μg/ml
[18] = combined with peptide at 64 μg/ml
[19] = linezolid 64 μg/ml (Conc./MIC 1/8)
[20] = linezolid 512 μg/ml (Conc./MIC 1)
[21] = vancomycin 512 μg/ml (Conc./MIC 1/2)
[22] = vancomycin 1024 μg/ml (Conc./MIC 1)
[23] = erythromycin 4 μg/ml (Conc./MIC 1/8)
[24] = erythromycin 8 μg/ml (Conc./MIC 1/4)
[25] = erythromycin 16 μg/ml (Conc./MIC 1/2)
[26] = erythromycin 32 μg/ml (Conc./MIC 1)

SMILES: CC[C@H](C)[C@H](NC(=O)[C@H](CCCCN)NC(=O)[C@H](Cc1c[nH]c2ccccc12)NC(=O)[C@@H](N)CCCNC(=N)N)C(=O)N[C@@H](Cc1ccccc1)C(=O)N[C@@H](CCCCN)C(=O)N[C@@H](CCCCN)C(=O)N[C@H](C(=O)N[C@H](CCCCN)C(=O)N[C@@H](CCCCN)C(=O)N[C@@H](CC(C)C)C(=O)N[C@@H](CC(C)C)C(=O)N[C@@H](Cc1c[nH]cn1)C(=O)N[C@@H](CO)C(=O)N[C@@H](Cc1ccccc1)C(=O)N[C@@H](CCCCN)C(=O)N[C@@H](CCCCN)C(=O)N[C@@H](Cc1ccccc1)C(N)=O)[C@@H](C)CC [PapMA-15, RWK IFK KIk KLL HSF KKF-NH2] (H-RWKIFKKI[dK]KLLHSFKKF-NH2; N-terminus assumed)
- Minimal inhibitory concentration MIC (E. coli [1]): 32 µg/mL (≈ 13.5 µM)
- Minimal inhibitory concentration MIC (MDREC 1229 [2]): 32 µg/mL (≈ 13.5 µM)
- Peptide MIC, peptide alone (MDREC 1229 [2]): 32 µg/mL
- Minimal inhibitory concentration MIC (P. aeruginosa): 32 µg/mL (≈ 13.5 µM)
- Minimal inhibitory concentration MIC (A. baumannii [3]): 32 µg/mL (≈ 13.5 µM)
- Peptide MIC, peptide alone (A. baumannii [3]): 32 µg/mL
- Antibacterial activity relative to PapMA-1 (A. baumannii [3]; A. baumannii and S. typhimurium): at least twice as high
- Minimal inhibitory concentration MIC (MDRAB 12035 [4]): 32 µg/mL (≈ 13.5 µM)
- Peptide MIC, peptide alone (MDRAB 12035 [4]): 32 µg/mL
- Minimal inhibitory concentration MIC (MDRST 8009): 64 µg/mL (≈ 26.9 µM)
- Minimal inhibitory concentration MIC (B. subtilis): >128 µg/mL
- Minimal inhibitory concentration MIC (S. epidermidis): >128 µg/mL
- Minimal inhibitory concentration MIC (S. aureus): >128 µg/mL
- Synergistic effect of antibacterial activity with existing antibiotics compared with PapMA-1 (E. coli [5]; E. coli and MDREC1229): level similar to that of the PapMA-1 peptide
- Antibiotic MIC, Erythromycin (E. coli [5]; erythromycin combined with peptide at 1 μg/ml): 64 µg/mL
- Antibiotic MIC, Erythromycin (E. coli [5]; erythromycin combined with peptide at 2 μg/ml): 32 µg/mL
- Antibiotic MIC, Erythromycin (E. coli [5]; erythromycin combined with peptide at 4 μg/ml): 16 µg/mL
- Antibiotic MIC, Erythromycin (E. coli [5]; erythromycin combined with peptide at 6 μg/ml): 2 µg/mL
- Antibiotic MIC, Erythromycin (E. coli [5]; erythromycin combined with peptide at 8 μg/ml): 1 µg/mL
- Antibiotic MIC, Erythromycin (E. coli [5]; erythromycin combined with peptide at 16 μg/ml): 0.25 µg/mL
- Antibiotic MIC, Erythromycin (E. coli [5]; erythromycin combined with peptide at 32 μg/ml): 0 µg/mL
- Antibiotic MIC, Erythromycin (E. coli [5]; erythromycin combined with peptide at 64 μg/ml): 0 µg/mL
- Antibiotic MIC, Linezolid (E. coli [5]; linezolid combined with peptide at 1 μg/ml): >128 µg/mL
- Antibiotic MIC, Linezolid (E. coli [5]; linezolid combined with peptide at 2 μg/ml): 128 µg/mL
- Antibiotic MIC, Linezolid (E. coli [5]; linezolid combined with peptide at 4 μg/ml): 32 µg/mL
- Antibiotic MIC, Linezolid (E. coli [5]; linezolid combined with peptide at 6 μg/ml): 16 µg/mL
- Antibiotic MIC, Linezolid (E. coli [5]; linezolid combined with peptide at 8 μg/ml): 16 µg/mL
- Antibiotic MIC, Linezolid (E. coli [5]; linezolid combined with peptide at 16 μg/ml): 8 µg/mL
- Antibiotic MIC, Linezolid (E. coli [5]; linezolid combined with peptide at 32 μg/ml): 0 µg/mL
- Antibiotic MIC, Linezolid (E. coli [5]; linezolid combined with peptide at 64 μg/ml): 0 µg/mL
- Antibiotic MIC, Vancomycin (E. coli [5]; vancomycin combined with peptide at 1 μg/ml): >128 µg/mL
- Antibiotic MIC, Vancomycin (E. coli [5]; vancomycin combined with peptide at 2 μg/ml): >128 µg/mL
- Antibiotic MIC, Vancomycin (E. coli [5]; vancomycin combined with peptide at 4 μg/ml): >128 µg/mL
- Antibiotic MIC, Vancomycin (E. coli [5]; vancomycin combined with peptide at 6 μg/ml): 64 µg/mL
- Antibiotic MIC, Vancomycin (E. coli [5]; vancomycin combined with peptide at 8 μg/ml): 32 µg/mL
- Antibiotic MIC, Vancomycin (E. coli [5]; vancomycin combined with peptide at 16 μg/ml): 16 µg/mL
- Antibiotic MIC, Vancomycin (E. coli [5]; vancomycin combined with peptide at 32 μg/ml): 0 µg/mL
- Antibiotic MIC, Vancomycin (E. coli [5]; vancomycin combined with peptide at 64 μg/ml): 0 µg/mL
- Antibiotic MIC, Erythromycin (A. baumannii [6]; [11]): 32 µg/mL
- Antibiotic MIC, Linezolid (A. baumannii [6]; [11]): >128 µg/mL
- Antibiotic MIC, Vancomycin (A. baumannii [6]; [11]): >128 µg/mL
- Antibiotic MIC, Erythromycin (A. baumannii [6]; [12]): 32 µg/mL
- Antibiotic MIC, Linezolid (A. baumannii [6]; [12]): 128 µg/mL
- Antibiotic MIC, Vancomycin (A. baumannii [6]; [12]): 128 µg/mL
- Antibiotic MIC, Erythromycin (A. baumannii [6]; [13]): 16 µg/mL
- Antibiotic MIC, Linezolid (A. baumannii [6]; [13]): 64 µg/mL
- Antibiotic MIC, Vancomycin (A. baumannii [6]; [13]): 32 µg/mL
- Antibiotic MIC, Erythromycin (A. baumannii [6]; [14]): 2 µg/mL
- Antibiotic MIC, Linezolid (A. baumannii [6]; [14]): 32 µg/mL
- Antibiotic MIC, Vancomycin (A. baumannii [6]; [14]): 16 µg/mL
- Antibiotic MIC, Erythromycin (A. baumannii [6]; [15]): 0.5 µg/mL
- Antibiotic MIC, Linezolid (A. baumannii [6]; [15]): 16 µg/mL
- Antibiotic MIC, Vancomycin (A. baumannii [6]; [15]): 16 µg/mL
- Antibiotic MIC, Erythromycin (A. baumannii [6]; [16]): 0.25 µg/mL
- Antibiotic MIC, Linezolid (A. baumannii [6]; [16]): 2 µg/mL
- Antibiotic MIC, Vancomycin (A. baumannii [6]; [16]): 8 µg/mL
- Antibiotic MIC, Erythromycin (A. baumannii [6]; [17]): 0 µg/mL
- Antibiotic MIC, Linezolid (A. baumannii [6]; [17]): 0 µg/mL
- Antibiotic MIC, Vancomycin (A. baumannii [6]; [17]): 0 µg/mL
- Antibiotic MIC, Erythromycin (A. baumannii [6]; [18]): 0 µg/mL
- Antibiotic MIC, Linezolid (A. baumannii [6]; [18]): 0 µg/mL
- Antibiotic MIC, Vancomycin (A. baumannii [6]; [18]): 0 µg/mL
- Peptide MIC (E. coli [7]; with Erythromycin […] (Conc./MIC 1)): 0 µg/mL
- Peptide MIC (E. coli [7]; with Linezolid […] (Conc./MIC 1)): 0 µg/mL
- Peptide MIC (E. coli [7]; with Vancomycin 1024 μg/ml (Conc./MIC 1)): 0 µg/mL
- Peptide MIC during treatment with antibiotic (MDREC 1229 [8]; erythromycin 32 μg/ml (Conc./MIC 1/8)): 2 µg/mL
- Peptide MIC during treatment with antibiotic (MDREC 1229 [8]; erythromycin 64 μg/ml (Conc./MIC 1/4)): 2 µg/mL
- Peptide MIC during treatment with antibiotic (MDREC 1229 [8]; erythromycin […] (Conc./MIC 1)): 0 µg/mL
- Peptide MIC during treatment with antibiotic (MDREC 1229 [8]; erythromycin […] (Conc./MIC 1/2)): 2 µg/mL
- Peptide MIC during treatment with antibiotic (MDREC 1229 [8]; [19]): 4 µg/mL
- Peptide MIC during treatment with antibiotic (MDREC 1229 [8]; [20]): 0 µg/mL
- Peptide MIC during treatment with antibiotic (MDREC 1229 [8]; linezolid […] (Conc./MIC 1/2)): 1 µg/mL
- Peptide MIC during treatment with antibiotic (MDREC 1229 [8]; linezolid […] (Conc./MIC 1/4)): 2 µg/mL
- Peptide MIC during treatment with antibiotic (MDREC 1229 [8]; [21]): 2 µg/mL
- Peptide MIC during treatment with antibiotic (MDREC 1229 [8]; [22]): 1 µg/mL
- Peptide MIC during treatment with antibiotic (MDREC 1229 [8]; vancomycin […] (Conc./MIC 1/4)): 4 µg/mL
- Peptide MIC during treatment with antibiotic (MDREC 1229 [8]; vancomycin […] (Conc./MIC 1/8)): 8 µg/mL
- Peptide MIC during treatment with antibiotic (A. baumannii [9]; [23]): 4 µg/mL
- Peptide MIC during treatment with antibiotic (A. baumannii [9]; [24]): 4 µg/mL
- Peptide MIC during treatment with antibiotic (A. baumannii [9]; [25]): 4 µg/mL
- Peptide MIC during treatment with antibiotic (A. baumannii [9]; [26]): 0 µg/mL
- Peptide MIC during treatment with antibiotic (A. baumannii [9]; linezolid 32 μg/ml (Conc./MIC 1/8)): 8 µg/mL
- Peptide MIC during treatment with antibiotic (A. baumannii [9]; linezolid 64 μg/ml (Conc./MIC 1/4)): 4 µg/mL
- Peptide MIC during treatment with antibiotic (A. baumannii [9]; linezolid […] (Conc./MIC 1)): 0 µg/mL
- Peptide MIC during treatment with antibiotic (A. baumannii [9]; linezolid […] (Conc./MIC 1/2)): 2 µg/mL
- Peptide MIC during treatment with antibiotic (A. baumannii [9]; [21]): 0.25 µg/mL
- Peptide MIC during treatment with antibiotic (A. baumannii [9]; [22]): 0 µg/mL
- Peptide MIC during treatment with antibiotic (A. baumannii [9]; vancomycin […] (Conc./MIC 1/4)): 0.5 µg/mL
- Peptide MIC during treatment with antibiotic (A. baumannii [9]; vancomycin […] (Conc./MIC 1/8)): 2 µg/mL
- Peptide MIC during treatment with erythromycin (MDRAB 12035 [10]; [23]): 4 µg/mL
- Peptide MIC during treatment with erythromycin (MDRAB 12035 [10]; [24]): 4 µg/mL
- Peptide MIC during treatment with erythromycin (MDRAB 12035 [10]; [25]): 4 µg/mL
- Peptide MIC during treatment with erythromycin (MDRAB 12035 [10]; [26]): 0 µg/mL
- Peptide MIC during treatment with linezolid (MDRAB 12035 [10]; [19]): 4 µg/mL
- Peptide MIC during treatment with linezolid (MDRAB 12035 [10]; [20]): 0 µg/mL
- Peptide MIC during treatment with linezolid (MDRAB 12035 [10]; linezolid […] (Conc./MIC 1/2)): 1 µg/mL
- Peptide MIC during treatment with linezolid (MDRAB 12035 [10]; linezolid […] (Conc./MIC 1/4)): 4 µg/mL
- Peptide MIC during treatment with vancomycin (MDRAB 12035 [10]; [21]): 2 µg/mL
- Peptide MIC during treatment with vancomycin (MDRAB 12035 [10]; [22]): 1 µg/mL
- Peptide MIC during treatment with vancomycin (MDRAB 12035 [10]; vancomycin […] (Conc./MIC 1/4)): 2 µg/mL
- Peptide MIC during treatment with vancomycin (MDRAB 12035 [10]; vancomycin […] (Conc./MIC 1/8)): 4 µg/mL
